The supplement of paper PMC10307832

Legend:
Test in all cases: relative viability (nuclei count vs DMSO), 5 days (fraction); higher = more cells survive
[1] = compound: Cc1ccc(C(=O)Nc2ccc(CN3CCN(C)CC3)c(C(F)(F)F)c2)cc1C#Cc1cnc2cccnn12 [Ponatinib] + CS(=O)(=O)CCNCc1ccc(-c2ccc3ncnc(Nc4ccc(OCc5cccc(F)c5)c(Cl)c4)c3c2)o1 [Lapatinib] (partner 2 µM)
Summary of the method: (§1)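 A single step with final 0.05% Triton X-100, 1% formaldehyde and 1 ug/ml Hoechst fixed the cells and stained nuclei 5 days after treatment. Lung cancer cell lines in 1536-well plates had been treated by pin tool the day after seeding with one drug alone or a fixed anchor-drug dose plus five library-drug doses (not always all listed) in √10 steps, and nuclei were counted on 4× images. Relative viability is the ratio of nuclei in treated wells to nuclei in vehicle wells, taken as the median of duplicate plates.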

[2] = compound: Cc1ccc(Nc2nccc(N(C)c3ccc4c(C)n(C)nc4c3)n2)cc1S(N)(=O)=O [Pazopanib] + C[C@@H](Oc1cc(-c2cnn(C3CCNCC3)c2)cnc1N)c1c(Cl)ccc(F)c1Cl [Crizotinib] (partner 1 µM)
Summary of the method: as §1

[3] = compound: Cc1ccc(Nc2nccc(N(C)c3ccc4c(C)n(C)nc4c3)n2)cc1S(N)(=O)=O [Pazopanib] + Nc1ncn([C@H]2C[C@H](O)[C@@H](CO)O2)c(=O)n1 [Decitabine] (partner 2 µM)
Summary of the method: as §1

[4] = compound: Cc1ccc(Nc2nccc(N(C)c3ccc4c(C)n(C)nc4c3)n2)cc1S(N)(=O)=O [Pazopanib] + O=C(c1cc(Cc2n[nH]c(=O)c3ccccc23)ccc1F)N1CCN(C(=O)C2CC2)CC1 [Olaparib] (partner 8 µM)
Summary of the method: as §1

Cell Line	relative viability ([1]; first compound 0.002 µM)	relative viability ([1]; first compound 0.006325 µM)	relative viability ([1]; first compound 0.06325 µM)	relative viability ([1]; first compound 0.2 µM)	relative viability ([2]; first compound 0.01 µM)	relative viability ([2]; first compound 0.03162 µM)	relative viability ([2]; first compound 0.1 µM)	relative viability ([2]; first compound 0.3162 µM)	relative viability ([2]; first compound 1 µM)	relative viability ([3]; first compound 0.01 µM)	relative viability ([3]; first compound 0.03162 µM)	relative viability ([3]; first compound 0.1 µM)	relative viability ([3]; first compound 0.3162 µM)	relative viability ([3]; first compound 1 µM)	relative viability ([4]; first compound 0.01 µM)	relative viability ([4]; first compound 0.03162 µM)	relative viability ([4]; first compound 0.1 µM)	relative viability ([4]; first compound 0.3162 µM)	relative viability ([4]; first compound 1 µM)
NCI-H2126	0.729	0.766	0.888	0.718	0.935	1.09	1.03	0.96	1.03	0.517	0.59	0.614	0.561	0.643	0.825	0.908	0.988	0.946	0.887
NCI-H2170	0.281	0.295	0.289	0.298	1.21	1.32	1.26	1.15	1.14	0.47	0.467	0.453	0.449	0.428	0.669	0.561	0.693	0.547	0.56
NCI-H2347	0.951	0.908	0.94	0.93	0.885	0.643	0.662	0.691	0.842	0.68	0.555	0.673	0.732	0.666	0.541	0.609	0.538	0.575	0.558
NCI-H2405	0.928	1.03	1.08	0.877	0.825	0.863	0.842	0.915	0.713	0.724	0.774	0.8	0.858	0.814	0.824	0.89	0.958	0.907	0.983
NCI-H3122	0.993	1	1.01	1.07	0.263	0.247	0.273	0.278	0.348	0.516	0.407	0.474	0.449	0.459	0.7	0.572	0.607	0.636	0.599
PC-3 [JPC-3]	0.43	0.45	0.492	0.502	1.03	1.01	1.02	0.925	0.936		0.885	0.773	0.916	0.787		1.15	1.18	1.11	1.02
PC-14	0.313	0.363	0.384	0.386	0.95	0.893	0.968	0.891	0.935	0.186	0.221	0.245	0.226	0.305	0.335	0.329	0.371	0.235	0.319
RERF-LC-KJ	0.8	0.882	0.881	0.8	0.794	0.773	0.812	0.775	0.789	0.66	0.681	0.739	0.631	0.699	0.805	0.938	0.947	0.785	0.583
SK-LU-1	0.636	0.858	0.864	0.741	0.952	1.02	1.14	0.976	0.852	0.568	0.611	0.633	0.632	0.665	0.392	0.483	0.441	0.525	0.55
SK-MES-1	0.472	0.531	0.749	0.59	0.93	1	1.01	1.01	0.98	0.338	0.359	0.369	0.416	0.55	0.659	0.684	0.76	0.75	0.685
SW 1573	1.1	1.19	1.25	1.22	0.813	0.878	0.974	0.836	0.757	0.465	0.52	0.607	0.528	0.7	0.471	0.511	0.52	0.531	0.517
UMC-11	1	1.05	1.17	0.988	0.625	0.716	0.708	0.675	0.588	0.598	0.686	0.616	0.578	0.49	0.425	0.359	0.41	0.509	0.34
